These results are taken from US8765786B2, “1-substituted indazole derivative” (Dainippon Sumitomo Pharma Co., Ltd., priority 2012, dated 2014).

This assay deals with T1, human α7 nAChR (Homo sapiens, UniProt P36544).
T1 construct: expressed in transfected cells; host or cells: GH4C1 cells derived from rat pituitary (ATCC CCL-82.2)
The assay can be described thus: Evaluation of PAM activity with human α7 nACh receptor stably expressing cells (aequorin luminescence, FDSS7000). The assay is classed as cell-based. Conditions: for α7PAM (%) @ 10 μmol/L / activity at 10 µM: test compound 10 μmol/L, ACh added at EC20, ratio of RLU (Max-Min) of test wells to control wells; for PAM activity for α7 nAChR: result in words, ratio of RLU (Max-Min) to control wells, ACh EC20; for activity at 10 µM: read-out: α7PAM (%) @ 10 μmol/L. In a few lines:
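PAM activity defined as RLU (Max-Min) of compound wells over control wells, from 465 nm aequorin luminescence tracked 138 s after ACh challenge. Host: GH4C1 (rat pituitary) stably co-expressing human α7 nAChR and aequorin, pre-loaded 4 h with 4 μmol/L luminescent substrate.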

T1 sequence (P36544 23-502): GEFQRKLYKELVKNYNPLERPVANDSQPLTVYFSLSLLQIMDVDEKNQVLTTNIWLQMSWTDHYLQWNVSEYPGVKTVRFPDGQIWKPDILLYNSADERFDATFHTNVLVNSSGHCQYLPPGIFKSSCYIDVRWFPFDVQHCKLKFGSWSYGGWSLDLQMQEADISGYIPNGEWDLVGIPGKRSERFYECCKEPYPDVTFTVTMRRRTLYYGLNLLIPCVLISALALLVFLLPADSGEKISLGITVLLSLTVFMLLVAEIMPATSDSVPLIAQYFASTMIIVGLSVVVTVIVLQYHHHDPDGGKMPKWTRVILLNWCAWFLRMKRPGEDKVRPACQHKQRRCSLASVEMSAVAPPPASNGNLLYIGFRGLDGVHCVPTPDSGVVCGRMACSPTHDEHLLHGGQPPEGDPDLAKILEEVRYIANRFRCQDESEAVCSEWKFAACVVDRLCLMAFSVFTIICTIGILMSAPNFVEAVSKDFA

Regarding `Cc1ccc2c(cnn2C2CCN(C(=O)C3CCCC3)CC2)c1` [Example 106], the “α7PAM (%) @ 10 μmol/L” value was found to be 164%. On the same count and under the same terms, as for `CCc1ccc2c(cnn2C2CCN(C(=O)NC3CCOC(C)(C)C3)CC2)c1` (stereo not drawn) [Example 21], the figure is 523%; as for `CCOc1nn(C2CCN(C(=O)NC3CCC(F)(F)CC3)CC2)c2ccc(CC)cc12` [Example 61], 1092%. In the case of `COCc1c(C)ccc2c1cnn2C1CCN(C(=O)NC2CCC(F)(F)CC2)CC1` [Example 213], the “α7PAM (%) @ 10 μmol/L” value is reported as 800%. With `COc1ccc2c(cnn2C2CCN(C(=O)NC3CCCCC3)CC2)c1` [Example 40], the “PAM activity for α7 nAChR” value is given as “stronger PAM activity than others” and the “α7PAM (%) @ 10 μmol/L” value amounted to 3205%. In the case of `CCc1ccc2c(cnn2C2CCN(C(=O)c3ccc(F)cn3)CC2)c1` [Example 118], the “α7PAM (%) @ 10 μmol/L” value was 188%.

As to `CCOc1nn(C2CCN(C(=O)NC3CCCC3)CC2)c2ccc(CC)cc12` [Example 56], the “α7PAM (%) @ 10 μmol/L” value is listed as 676%. With `COc1ccc2c(cnn2C2CCN(C(=O)N[C@H]3CC[C@H](OC)CC3)CC2)c1OC` [Example 306], the “α7PAM (%) @ 10 μmol/L” value is listed as 147%. The same measure, in the same setting: the result for `CO[C@H]1CC[C@H](NC(=O)N2CCC(n3ncc4cc(-c5ccc(F)cc5)ccc43)CC2)CC1` [Example 155] reads 210%. For `O=C(NC1CCC1)N1CCC(n2ncc3cc(C(F)(F)F)ccc32)CC1` [Example 298, N-cyclobutyl-4-[5-(trifluoromethyl)-1H-indazol-1-yl]piperidine-1-carboxamide], the activity at 10 µM came to 315%. As to `O=C(NC1CCC(F)(F)CC1)N1CCC(n2ncc3cc(C(F)(F)F)ccc32)CC1` [Example 164], the “α7PAM (%) @ 10 μmol/L” value is reported as 979%. Regarding `CO[C@H]1CC[C@H](NC(=O)N2CCC(n3ncc4c(C)c(C)ccc43)CC2)CC1` [Example 225], the “α7PAM (%) @ 10 μmol/L” value was determined as 480%. The same measure, in the same setting: the result for `Cc1ccc2c(cnn2C2CCN(C(=O)N[C@H]3CC[C@H](OC(F)F)CC3)CC2)c1` [Example 154] reads 811%; that for `N#Cc1ccc2c(cnn2C2CCN(C(=O)NC3CCC(F)(F)CC3)CC2)c1` [Example 198], 268%. Regarding `CCOc1c(CC)ccc2c1cnn2C1CCN(C(=O)N[C@H]2CC[C@H](OC)CC2)CC1` [Example 272, 4-(4-ethoxy-5-ethyl-1H-indazol-1-yl)-N-(trans-4-methoxycyclohexyl)piperidine-1-carboxamide], the activity at 10 µM worked out at 442%. Consider `O=C(NC1CCC(F)(F)CC1)N1CCC(n2ncc3cc(C4CC4)ccc32)CC1` [Example 77], for which the “α7PAM (%) @ 10 μmol/L” value amounted to 1780%. The same measure, in the same setting: as for `CCOc1ccc2c(cnn2C2CCN(C(=O)c3ccc(F)cc3)CC2)c1` [Example 112], the figure is 265%. In the case of `COc1c(C2CC2)ccc2c1cnn2C1CCN(C(=O)N[C@H]2CC[C@H](OC)CC2)CC1` [Example 263, 4-(5-cyclopropyl-4-methoxy-1H-indazol-1-yl)-N-(trans-4-methoxycyclohexyl)piperidine-1-carboxamide], the activity at 10 µM is 749%. Turning to `O=C(C1CCOCC1)N1CCC(n2ncc3cc(C4CC4)ccc32)CC1` [Example 140], the “α7PAM (%) @ 10 μmol/L” value came out at 265%. Take `Cc1ccc2c(cnn2C2CCN(C(=O)C3CCC(F)(F)CC3)CC2)c1` [Example 133]: the “α7PAM (%) @ 10 μmol/L” value is 568%. The same measure, in the same setting: the result for `CCc1c(OC)ccc2c1cnn2C1CCN(C(=O)NC2CCC(F)(F)CC2)CC1` [Example 287] reads 645%; that for `CCOc1nn(C2CCN(C(=O)NC3CCOCC3)CC2)c2ccc(C(F)(F)F)cc12` [Example 267], 292%. For `CCOc1nn(C2CCN(C(=O)NC3CCOCC3)CC2)c2ccc(OC(F)(F)F)cc12` [Example 265], the “α7PAM (%) @ 10 μmol/L” value came out at 181%. On to `O=C(NC1CCOCC1)N1CCC(n2ncc3cc(OC(F)F)ccc32)CC1` [Example 292], for which the “α7PAM (%) @ 10 μmol/L” value is on record as 413%.

In the case of `CCOc1nn(C2CCN(C(=O)NC3CCOCC3)CC2)c2ccc(CC)cc12` [Example 2, 4-(3-ethoxy-5-ethyl-1H-indazol-1-yl)-N-(tetrahydro-2H-pyran-4-yl)piperidine-1-carboxamide], the activity at 10 µM was found to be 625%.

`CCCc1ccc2c(cnn2C2CCN(C(=O)NC3CCC(OC)CC3)CC2)c1` (stereo not drawn) [Example 76]: the “α7PAM (%) @ 10 μmol/L” value is given as 420%. Still for that read-out and setting: the result for `CO[C@H]1CC[C@@H](NC(=O)N2CCC(n3ncc4c(C5CC5)cccc43)CC2)CC1` [Example 160] reads 207%. For `CCc1ccc2c(c1)c(COC)nn2C1CCN(C(=O)NC2CCC(F)(F)CC2)CC1` [Example 157], the “α7PAM (%) @ 10 μmol/L” value is 366%.

On to `CCc1cccc2c1cnn2C1CCN(C(=O)N[C@H]2CC[C@@H](OC)CC2)CC1` [Example 158], for which the “α7PAM (%) @ 10 μmol/L” value is 292%. On the same count and under the same terms, the result for `COCCCc1ccc2c(cnn2C2CCN(C(=O)NC3CCC(F)(F)CC3)CC2)c1` [Example 26] reads 521%; that for `COC1CCC(C(=O)N2CCC(n3ncc4cc(C5CC5)ccc43)CC2)CC1` (stereo not drawn) [Example 141], 448%. With `CCc1ccc2c(c1)c(OC(C)C)nn2C1CCN(C(=O)NC2CCCCC2)CC1` [Example 153], the “α7PAM (%) @ 10 μmol/L” value worked out at 386%. Take `COc1nn(C2CCN(C(=O)NC3CCC(F)(F)CC3)CC2)c2ccc(C)cc12` [Example 270]: the “α7PAM (%) @ 10 μmol/L” value stood at 364%. The same measure, in the same setting: the result for `CCc1ccc2c(cnn2[C@H]2CC[C@@H](C(=O)NC3CCCCC3)CC2)c1` [Example 127] reads 806%; that for `COCc1nn(C2CCN(C(=O)NC3CCCC3)CC2)c2ccc(C)cc12` [Example 67], 436%; that for `[2H]C([2H])([2H])Oc1ccc2c(cnn2C2CCN(C(=O)NC3CCC(F)(F)CC3)CC2)c1` [Example 319], 1337%. The same measure, in the same setting: as for `COC1CCC(NC(=O)N2CCC(n3ncc4cc(C)ccc43)CC2)CC1` (stereo not drawn) [Example 91], the figure is 217%; as for `Cc1ccc2c(cnn2C2CCN(C(=O)C3CCC(F)(F)CC3)CC2)c1` [Example 138], 642%; as for `CCc1ccc2c(cnn2[C@H]2CC[C@@H](NC(=O)C3CCCC3)CC2)c1` [Example 123], 1445%. Still for that read-out and setting: the result for `O=C(NC1CCC(F)(F)CC1)N1CCC(n2ncc3c(C4CC4)cccc32)CC1` [Example 161] reads 567%; that for `[2H]C([2H])([2H])O[C@H]1CC[C@H](NC(=O)N2CCC(n3ncc4c(OC)c(CC)ccc43)CC2)CC1` [Example 318], 1084%.

For `CCOc1ccc2c(cnn2C2CCN(C(=O)c3ccc(C(F)(F)F)cn3)CC2)c1` [Example 132], the “α7PAM (%) @ 10 μmol/L” value is listed as 361%. Turning to `CCc1ccc2c(c1)c(OC(C)C)nn2C1CCN(C(=O)NC2CCC(F)(F)CC2)CC1` [Example 62], the “α7PAM (%) @ 10 μmol/L” value was found to be 653%. Take `CC(C)Oc1ccc2c(cnn2C2CCN(C(=O)C3CCC(F)(F)CC3)CC2)c1` [Example 116]: the “α7PAM (%) @ 10 μmol/L” value is listed as 279%. Same read-out and setting: as for `COC1CCC(NC(=O)N2CCC(n3ncc4c(C)cccc43)CC2)CC1` (stereo not drawn) [Example 94], the figure is 154%. `COc1ccc(C2(NC(=O)N3CCC(n4ncc5cc(C6CC6)ccc54)CC3)CC2)cc1` [Example 206]: the “α7PAM (%) @ 10 μmol/L” value was 196%. The same measure, in the same setting: the result for `COC1CCC(NC(=O)N2CCC(n3ncc4cc(OC(C)C)ccc43)CC2)CC1` (stereo not drawn) [Example 47] reads 375%; that for `Cc1ccc2c(cnn2C2CCN(C(=O)NC3CCCC3)CC2)c1` [Example 7], 1044%; that for `CC(C)(C)NC(=O)N1CCC(n2ncc3cc(C4CC4)ccc32)CC1` [Example 172], 541%. Consider `CCc1ccc2c(cnn2C2CCN(C(=O)NC3CCCC3)CC2)c1` [Example 20], for which the “PAM activity for α7 nAChR” value is recorded as “stronger PAM activity than others” and the “α7PAM (%) @ 10 μmol/L” value was determined as 2215%. Turning to `CC(C)Oc1cccc2c1cnn2C1CCN(C(=O)NC2CCC(F)(F)CC2)CC1` [Example 183], the “α7PAM (%) @ 10 μmol/L” value was 342%. Take `O=C(NC1CCC(F)(F)CC1)N1CCC(n2ncc3cc(N4CCCC4)ccc32)CC1` [Example 224]: the “α7PAM (%) @ 10 μmol/L” value was 286%.

Turning to `O=C(C1CCOCC1)N1CCC(n2ncc3cc(Br)ccc32)CC1` [Example 102], the “α7PAM (%) @ 10 μmol/L” value is listed as 228%. On the same count and under the same terms, as for `COc1cccc2c1cnn2C1CCN(C(=O)NC2CCC(F)(F)CC2)CC1` [Example 182], the figure is 742%; as for `COc1ccc2c(cnn2C2CCN(C(=O)NC3CCCCC3(F)F)CC2)c1` (stereo not drawn) [Example 86], 1481%.

Turning to `CO[C@H]1CC[C@H](NC(=O)N2CCC(n3ncc4c(C)c(C5CC5)ccc43)CC2)CC1` [Example 277, 4-(5-cyclopropyl-4-methyl-1H-indazol-1-yl)-N-(trans-4-methoxycyclohexyl)piperidine-1-carboxamide], the activity at 10 µM came to 729%. For `CCc1ccc2c(c1)c(OC)nn2C1CCN(C(=O)NC2CCOCC2)CC1` [Example 150], the “α7PAM (%) @ 10 μmol/L” value was 643%.

For `Cc1ccc2c(c1)c(OC(C)C)nn2C1CCN(C(=O)NC2CCOCC2)CC1` [Example 208], the “α7PAM (%) @ 10 μmol/L” value is listed as 328%. Same read-out and setting: the result for `COC1CCC(NC(=O)N2CCC(n3ncc4cc(F)ccc43)CC2)CC1` (stereo not drawn) [Example 29] reads 206%. As for `COC1CCC(NC(=O)N2CCC(n3nc(C4CCOCC4)c4cc(C)ccc43)CC2)CC1` (stereo not drawn) [Example 55], the “α7PAM (%) @ 10 μmol/L” value is 603%. Regarding `O=C(NC1CCCOC1)N1CCC(n2ncc3cc(OC(F)(F)F)ccc32)CC1` (stereo not drawn) [Example 300, N-(tetrahydro-2H-pyran-3-yl)-4-[5-(trifluoromethoxy)-1H-indazol-1-yl]piperidine-1-carboxamide], the activity at 10 µM stood at 376%.
